Positions count from the first letter of the chain named. Where a name gives a salt, the structure may show the parent alone. Read-outs that look alike come from different tables or passages of the source.
Key:
[1] = target: T1, M1 central muscarinic cholinergic receptors (Mus musculus, UniProt P12657); assay: Antagonism of rotational behavior induced by intrastriatal injection of pirenzepine in mice; assay type: in vivo, mice (female, Swiss, CD 1); details: ip, read-out: Pirenzepine antagonism ED50
T1 construct: The intrastriatal injection of PZ into mice induces rotational behavior; from tissue; host or cells: right striatum of living female mice (Swiss, CD 1)
T1 sequence (P12657 1-460): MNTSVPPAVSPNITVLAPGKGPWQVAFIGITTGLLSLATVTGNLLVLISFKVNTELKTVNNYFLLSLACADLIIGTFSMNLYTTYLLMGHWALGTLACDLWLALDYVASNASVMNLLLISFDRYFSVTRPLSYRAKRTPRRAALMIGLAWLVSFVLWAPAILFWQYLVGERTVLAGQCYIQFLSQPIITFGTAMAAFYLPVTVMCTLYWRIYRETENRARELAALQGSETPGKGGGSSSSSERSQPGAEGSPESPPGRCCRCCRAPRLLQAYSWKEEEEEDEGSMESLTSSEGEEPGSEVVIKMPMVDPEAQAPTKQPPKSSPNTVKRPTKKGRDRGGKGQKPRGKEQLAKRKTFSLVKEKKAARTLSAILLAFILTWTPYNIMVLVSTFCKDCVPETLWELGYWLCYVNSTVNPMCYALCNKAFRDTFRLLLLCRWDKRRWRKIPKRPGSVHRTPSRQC
Protocol: Pirenzepine (PZ) is a specific antagonist of M1 central muscarinic cholinergic receptors. The intrastriatal injection of PZ into mice induces rotational behavior. The antagonism of this behavior by the products according to the invention was studied.
The products according to the invention are injected intraperitoneally (i.p.) after solubilization in distilled water or suspension in a 5% solution of gum arabic. The control animals receive an injection of the pure solvent under the same conditions.
The animals used are female mice (Swiss, CD 1, Charles River, France) with a body weight of between 25 and 30 grams.
Pirenzepine is dissolved in a phosphate buffer; the pH of the solution is 6.
The products to be studied or their solvents are injected intraperitoneally, in a volume of 0.4 ml per 20 g of body weight, 15 minutes before a direct injection of pirenzepine at a dose of […] into the right striatum of the mouse, according to the method described by p.
The number of contralateral rotations (rotations in the opposite direction to the side injected) was counted for three 2-minute periods after the injection of pirenzepine: minutes 2 to 4, 8 to 10 and 13 to 15. Each treatment includes 3 to 4 doses and 10 animals per dose. For each treatment, the total number of rotations and the percentage antagonism compared with the control group are calculated.

[2] = target: T2, M1-type muscarinic cholinergic receptor (Rattus norvegicus, UniProt P08482); assay: Test for affinity for the M1-type muscarinic cholinergic receptor: displacement of [3H]pirenzepine on rat hippocampus homogenate; assay type: binding; details: for IC50: rat hippocampus homogenate, 1 nM [3H]PZ, 2 h at 4° C., pH 7.40; for r = (M2 /M1): ratio of IC50 M2 (3H-NMS, guinea-pig ileum) to IC50 M1 (3H-pirenzepine, rat hippocampus)
T2 sequence (P08482 1-460): T1 sequence (P12657 1-460) with P309S
Text: (§1) The M1 -type receptors are concentrated in certain areas of the brain, such as the hippocampus, the cerebral cortex and the striatum, and also in the sympathetic ganglia. These binding sites can be selectively labeled with [^3 H]pirenzepine ([^3 H]PZ). The M2 -type receptors predominate in the heart and ileum and can be labeled with [^3 H]N-methylscopolamine ([^3 H]NMS). To determine the selectivity of our molecules towards the M1 and M2 sites, we studied their interaction in vitro with [^3 H]PZ and [^3 H]NMS bound with a high affinity to membranes of rat hippocampus and membranes of smooth muscle of guinea-pig ileum, respectively.
The interaction of the molecules with M1 -type muscarinic receptors was studied by in vitro measurement, on a homogenate of rat hippocampus, of the displacement of tritiated pirenzepine ([^3 H]PZ) from its specific binding sites. Aliquots (10 μl) of a 5% (w/v) homogenate of rat hippocampus in an Na2 HPO4 buffer (50 mM, pH 7.40) are incubated for 2 h at 4° C. in the presence of [^3 H]pZ ([…]; final concentration: 1 nM) and increasing concentrations of products to be studied. The final volume is 2 ml. The reaction is stopped by centrifugation for 10 min at 50,000 × g. After decantation and washing of the residues, the bound radioactivity is counted by liquid scintillation. The non-specific binding is determined in the presence of 10 μmol/l of atropine sulfate. The 50% inhibitory concentration (IC50) is determined graphically (Ref.: Watson J. D., Roeskoe W. R. and Yamamura H.1., Life Sci., 31, 2019-2029, 1982).
(§2) Table 4 indicates the affinities of the products of the invention for M1 and M2 receptors. The results are expressed as 50% inhibitory concentrations (IC50), i.e. the concentration (in μM) which causes a 50% displacement placement of the tritiated ligand bound to the membrane receptors. The IC50 for displacement of ^3 H-pirenzepine represents the affinity for the M1 receptor; the IC50 for displacement of 3H-NMS represents the affinity for the M2 receptor.

[3] = target: T3, M2-type muscarinic cholinergic receptor (Cavia porcellus, UniProt H0VRN8); assay: Test for affinity for the M2-type muscarinic cholinergic receptor: displacement of [3H]N-methylscopolamine on smooth muscle of guinea-pig ileum; assay type: binding; details: guinea-pig ileum smooth muscle homogenate, 0.3 nM [3H]NMS, 20 min at 30° C., pH 7.5
T3 construct: on a homogenate of smooth muscle of guinea-pig ileum; from tissue; host or cells: guinea-pig ileum smooth muscle homogenate
T3 sequence (H0VRN8 1-466): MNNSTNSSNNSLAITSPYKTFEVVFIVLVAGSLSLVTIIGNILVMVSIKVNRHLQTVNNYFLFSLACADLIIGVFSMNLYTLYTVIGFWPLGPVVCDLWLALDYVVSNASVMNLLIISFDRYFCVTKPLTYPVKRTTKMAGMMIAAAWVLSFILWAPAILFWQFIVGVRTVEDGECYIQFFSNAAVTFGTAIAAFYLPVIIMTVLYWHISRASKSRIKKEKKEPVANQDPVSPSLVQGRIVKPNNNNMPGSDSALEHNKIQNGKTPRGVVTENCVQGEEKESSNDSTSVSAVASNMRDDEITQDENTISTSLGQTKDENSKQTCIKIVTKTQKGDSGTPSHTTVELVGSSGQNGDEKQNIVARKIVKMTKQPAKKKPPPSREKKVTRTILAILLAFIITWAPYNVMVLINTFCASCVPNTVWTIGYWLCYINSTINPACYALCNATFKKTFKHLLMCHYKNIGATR
Text: as §1
The interaction with M2 -type muscarinic receptors was studied by in vitro measurement, on a homogenate of smooth muscle of guinea-pig ileum, of the displacement of tritiated N-methylscopolamine ([^3 H]NMS) from its specific binding sites. Aliquots (50 μl) of a 0.625% (w/v) homogenate of smooth muscle of guinea-pig ileum in MEPES buffer (20 mM) containing NaCl (100 mM) and MgCl2 (10 mM) (final pH: 7.5) are incubated for 20 min at 30° C. in the presence of [^3 H]NMS ([…]; final concentration: 0.3 nM) and increasing concentrations of products to be tested. The final volume is 1 ml. The reaction is stopped by centrifugation for 5 min at 15,000 × g. The non-specific binding is determined in the presence of 10 μmol/l of atropine sulfate (Ref.: Hammer R., Berrie C. P., Birdsall N. I. M., Burgen A. S. V. and Hulme E. C., Nature, 283, 90-92, 1980; Hulme E. C., Birdsall N.1.M., Burgen A. S. V. and Mettha P., Mol. pharmacol., 14, 737-750, 1978).
as §2

[4] = mice, i.p. 15 minutes before intrastriatal pirenzepine, 50% reduction in number of rotations

| ED50 [1, 4] [mg/kg] | IC50 [2] [nM] | r = (M2 /M1) [2] | IC50 [3] [µM] | Structure (SMILES) | ED50 [1] [mg/kg] |
| --- | --- | --- | --- | --- | --- |
| 3 | – | – | – | Cc1cc2c(cc1C)-c1nnc(NCCN3CCCC3)cc1CCC2 [SR 44650 A] | – |
| 3 | 180 | 11 | 2 | Cc1cc2c(cc1C)-c1nnc(NCCN(C(C)C)C(C)C)cc1CCC2 [SR 44664 A] | – |
| 1 | 260 | 35 | 9 | CN(C)CCNc1cc2c(nn1)-c1cc([N+](=O)[O-])ccc1CCC2 [SR 44681 A] | – |
| – | 150 | 24 | 3.6 | c1ccc2c(c1)CCCc1cc(NCCN3CCCCC3)nnc1-2 [SR 44694 A] | – |
| – | 700 | 10 | 6.5 | CN(C)CCNc1cc2c(nn1)-c1cc(Cl)c(Cl)cc1CCC2 [SR 44696 A] | – |
| – | 300 | 10 | 3 | CC(C)N(CCNc1cc2c(nn1)-c1cc([N+](=O)[O-])ccc1CCC2)C(C)C [SR 44697 A] | – |
| – | 180 | 16 | 3 | Clc1cc2c(cc1Cl)-c1nnc(NCCN3CCCCC3)cc1CCC2 [SR 44705 A] | – |
| – | 3600 | 8 | 30 | CCCCN(CCCC)CCNc1cc2c(nn1)-c1cc(C)c(C)cc1CCC2 [SR 44706 A] | – |
| 3 | – | – | – | O=C1CN(CCNc2cc3c(nn2)-c2ccccc2CCC3)CCO1 [SR 95696 A, 3-Z-(2-Oxomorpholino)ethylamino]-6,7-dihydro-5H-benzocyclohepta[5,6-c]pyridazine hydrochloride] | – |
| – | 200 | 10 | 2 | CCN(CC)CCNc1cc2c(nn1)-c1cc(N)ccc1CCC2 [SR 95776 A, 10-Amino-3-(Z-diethylaminoethylamino)-6,7-dihydro-5H-benzocyclohepta[5,6-c]pyridazine dihydrochloride] | – |
| 2 | – | – | – | c1ccc2c(c1)CCCc1cc(NCCCN3CCOCC3)nnc1-2 [SR 95817 A] | – |
| 10 | – | – | – | OCCNCCNc1cc2c(nn1)-c1ccccc1CCC2 [SR 95819 A, 3-[2-(2-hydroxyethylamino)ethylamino]-6,7-dihydro-5H-benzocyclohepta[5,6-c]pyridazine] | – |
| – | 3000 | 14 | 43 | Cc1cc2ccccc2c2nnc(NCCN3CCOCC3)cc12 [SR 96057 A, 5-3-(2-morpholinoethylamino)benzo[h]cinnoline dihydrochloride] | – |

| Structure (SMILES) | ED50 [1, 4] [mg/kg] | IC50 [2] [nM] | r = (M2 /M1) [2] | IC50 [3] [µM] | ED50 [1] [mg/kg] |
| --- | --- | --- | --- | --- | --- |
| CCN(CC)CCNc1cc2c(nn1)-c1cc(C)c(C)cc1CCC2.Cl.Cl [SR 44663 A, 3-(2-Diethylaminoethylamino)-9,10-dimethyl-6,7-dihydro-5H-benzocyclohepta[5,6-c]pyridazine dihydrochloride] | – | 160 | 37 | 5 | 1 |
| CCN(CC)CCNc1cc2c(nn1)-c1cc(Cl)c(Cl)cc1CCC2.Cl.Cl [SR 44695 A, 9,10-Dichloro-3-(2-diethylaminoethylamino)-6,7-dihydro-5H-benzocyclohepta[5,6-c]pyridazine dihydrochloride] | – | 450 | 10 | 4.5 | – |
| CCN(CC)CCNc1cc2c(nn1)-c1cc(C)c(C)cc1CCCC2.Cl.Cl [SR 44703 A, 3-(2-Diethylaminoethylamino)-10,11-dimethyl-5,6,7,8-tetrahydrobenzocycloocta[5,6-c]pyridazine dihydrochloride] | – | 100 | 40 | 4 | – |
| Cl.Cl.c1ccc2c(c1)CCCc1cc(NCCN3CCOCC3)nnc1-2 [SR 95639 A, 3-(2-Morpholinoethylamino)-6,7-dihydro-5H-benzocyclohepta[5,6-c]pyridazine dihydrochloride] | – | 400 | 137 | 55 | 5 |
| Cl.Cl.O=[N+]([O-])c1cccc2c1CCCc1cc(NCCN3CCOCC3)nnc1-2 [SR 96100 A, 3-(2-Morpholinoethylamino)-8-nitro-6,7-dihydro-5H-benzocyclohepta[5,6-c]pyridazine dihydrochloride] | – | 400 | 110 | 44 | – |
| Cl.Cl.Fc1ccc2c(c1)CCCc1cc(NCCN3CCOCC3)nnc1-2 [SR 96108 A, 9-Fluoro-3 (2-morpholinoethylamino)-6,7-dihydro-5H-benzocyclohepta[5,6-c]pyridazine dihydrochloride] | – | 1000 | 40 | 40 | – |
